Laboratory results from patent US4835160A, “Derivatives of pyridoindole, having anti-tumor properties” (Sanofi, priority 1986, dated 1989).

Legend:
in vivo [1] = experiment: in vivo; design: species or system CDF1 hybrid mice; conditions: mouse, ip
Description: The compounds of the invention benefit from a good tolerance and a weak toxicity.
Thus the administration, to healthy CDF1 hybrid mice, in a single injection by intraperitoneal route, of the compounds under test, has enabled it to be established that the product is perfectly tolerated at a high dosage since the survival rate of the animals of the experiment was 100 out of 100 thirteen days after administration.

in vivo [2] = experiment: in vivo; design: species or system female CDF1 hybrid mice; conditions: mouse, iv
Description: In addition the administration, to healthy female CDF1 hybrid mice, in a single injection by intravenous route with a perfusor, lasting 4 minutes, of the compounds under test in solution in physiological serum at a rate of 0.1 ml of solution per 10 g weight of the animals has enabled it to be established that the compounds are also well tolerated at a high dosage in these conditions.

leukemia P388 = experiment: Test for leukemia P388, IP/IP, D1; type: in vivo, CDF1 hybrid mice; conditions: for Number of survivors: day D30; for T/C %: survival time
How it was run: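 CDF1 hybrid mice inoculated i.p. on D0 with 10^6 P388 leukemia cells; compound in distilled water given i.p. once on D1, 10 mice per group. Activity as increase in survival time versus untreated controls (T/C); survivors counted on D30. 5-fluorouracil positive control under same conditions.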

melanoma B 16 = experiment: Test for melanoma B 16; type: in vivo, BDF1 hybrid mice; conditions: D1-D9; for Number of survivors: day D60; for T/C %: survival time
How it was run: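 BDF1 mice inoculated i.p. with 0.5 ml B16 melanoma homogenate (1 g tumour in 10 ml physiological serum); compound given i.p. daily D1–D9, Cis-platine positive control under same conditions. Surviving animals counted on D60; activity as survival increase vs untreated controls (T/C), toxicity if T/C ≤85%.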

leukemia P 388 = experiment: Test of leukemia P 388; IP/IP, D1-5; type: in vivo, CDF1 hybrid mice; conditions: D1-D5; for Number of survivors: day D30; for T/C %: survival time
How it was run: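 CDF1 hybrid mice received 10^6 P 388 cells intraperitoneally, then compound in distilled water by intraperitoneal route daily D1-D5, 10 mice per group, 5-fluorouracil as positive control. Activity judged as T/C survival time versus untreated controls, survivors counted at D30; T/C ≤85% or day 5 minus day 1 weight change ≤ −4 g counted as toxic.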

Cc1cnc(NCCCN(C)C)c2c1[nH]c1ccc(O)cc12 [Derivative No. 10, 1-(3-dimethylaminopropylamino)-8-hydroxy-4-methyl-5H-pyrido[4,3-b]indole]
survival at 312 h (in vivo [1]; 100 mg/kg): 100% | survival at 192 h (in vivo [2]; 25 mg/kg): 100% | survival at 192 h (in vivo [2]; 40 mg/kg): 40% | Median day of survival (leukemia P388; 5 mg/kg IP): 15.3 days | Variation by weight (leukemia P388; 5 mg/kg IP): -0.1 g | Number of survivors (leukemia P388; 5 mg/kg IP): 0/10 | T/C % (leukemia P388; 5 mg/kg IP): 139% | Median day of survival (leukemia P388; 10 mg/kg IP): 15.25 days | Variation by weight (g) (leukemia P388; 10 mg/kg IP): +0.3 g | Number of survivors (leukemia P388; 10 mg/kg IP): 0/10 | T/C % (leukemia P388; 10 mg/kg IP): 139% | Median day of survival (leukemia P388; 20 mg/kg IP): 15.6 days | Variation by weight (leukemia P388; 20 mg/kg IP): -0.8 g | Number of survivors (leukemia P388; 20 mg/kg IP): 0/10 | T/C % (leukemia P388; 20 mg/kg IP): 142% | Median day of survival (leukemia P388; 40 mg/kg IP): 15.3 days | Variation by weight (leukemia P388; 40 mg/kg IP): -1.4 g | Number of survivors (leukemia P388; 40 mg/kg IP): 0/10 | T/C % (leukemia P388; 40 mg/kg IP): 139% | Median day of survival (melanoma B 16; 1.25 mg/kg IP): 32.0 days | Variation by weight (g) (melanoma B 16; 1.25 mg/kg IP): +2.8 g | Number of survivors (melanoma B 16; 1.25 mg/kg IP): 0/10 | T/C % (melanoma B 16; 1.25 mg/kg IP): 116% | Median day of survival (melanoma B 16; 2.5 mg/kg IP): 38.75 days | Variation by weight (g) (melanoma B 16; 2.5 mg/kg IP): +1.8 g | Number of survivors (melanoma B 16; 2.5 mg/kg IP): 0/10 | T/C % (melanoma B 16; 2.5 mg/kg IP): 141% | Median day of survival (melanoma B 16; 5 mg/kg IP): 44.0 days | Variation by weight (g) (melanoma B 16; 5 mg/kg IP): +2.4 g | Number of survivors (melanoma B 16; 5 mg/kg IP): 0/10 | T/C % (melanoma B 16; 5 mg/kg IP): 160% | Median day of survival (melanoma B 16; 10 mg/kg IP): 11.7 days | Variation by weight (g) (melanoma B 16; 10 mg/kg IP): +0.5 g | Number of survivors (melanoma B 16; 10 mg/kg IP): 0/10 | T/C % (melanoma B 16; 10 mg/kg IP): 42% | Median day of survival (leukemia P 388; 0.625 mg/kg IP): 15.75 days | Variation by weight (g) (leukemia P 388; 0.625 mg/kg IP): +4.1 g | Number of survivors (leukemia P 388; 0.625 mg/kg IP): 0/10 | T/C % (leukemia P 388; 0.625 mg/kg IP): 139% | Median day of survival (leukemia P 388; 1.25 mg/kg IP): 17.0 days | Variation by weight (g) (leukemia P 388; 1.25 mg/kg IP): +3.3 g | Number of survivors (leukemia P 388; 1.25 mg/kg IP): 0/10 | T/C % (leukemia P 388; 1.25 mg/kg IP): 150% | Median day of survival (leukemia P 388; 2.5 mg/kg IP): 16.4 days | Variation by weight (g) (leukemia P 388; 2.5 mg/kg IP): +3.2 g | Number of survivors (leukemia P 388; 2.5 mg/kg IP): 0/10 | T/C % (leukemia P 388; 2.5 mg/kg IP): 145% | Median day of survival (leukemia P 388; 5 mg/kg IP): 21.0 days | Variation by weight (g) (leukemia P 388; 5 mg/kg IP): +2.0 g | Number of survivors (leukemia P 388; 5 mg/kg IP): 1/10 | T/C % (leukemia P 388; 5 mg/kg IP): 186% | Median day of survival (leukemia P 388; 10 mg/kg IP): 16.75 days | Variation by weight (g) (leukemia P 388; 10 mg/kg IP): +1.8 g | Number of survivors (leukemia P 388; 10 mg/kg IP): 0/10 | T/C % (leukemia P 388; 10 mg/kg IP): 148% | Median day of survival (leukemia P 388; 20 mg/kg IP): 7.8 days | Variation by weight (leukemia P 388; 20 mg/kg IP): -0.4 g | Number of survivors (leukemia P 388; 20 mg/kg IP): 0/10 | T/C % (leukemia P 388; 20 mg/kg IP): 69%

Cc1cnc(NCCCN(C)C)c2c3cc(O)ccc3n(C)c12 [Derivative No. 14, 4,5-dimethyl 1(3-dimethylaminopropylamino)-8-hydroxy-5H-pyrido[4,3-b]indole]
survival at 312 h (in vivo [1]; 25 mg/kg): 100% | survival at 192 h (in vivo [2]; 50 mg/kg): 100% | Median day of survival (leukemia P388; 5 mg/kg IP): 19.75 days | Variation by weight (leukemia P388; 5 mg/kg IP): -1.2 g | Number of survivors (leukemia P388; 5 mg/kg IP): 0/10 | T/C % (leukemia P388; 5 mg/kg IP): 173% | Median day of survival (leukemia P388; 10 mg/kg IP): 19.0 days | Variation by weight (leukemia P388; 10 mg/kg IP): -1.4 g | Number of survivors (leukemia P388; 10 mg/kg IP): 1/10 | T/C % (leukemia P388; 10 mg/kg IP): 167% | Median day of survival (leukemia P388; 20 mg/kg IP): 18.75 days | Variation by weight (leukemia P388; 20 mg/kg IP): -2.5 g | Number of survivors (leukemia P388; 20 mg/kg IP): 1/10 | T/C % (leukemia P388; 20 mg/kg IP): 164% | Median day of survival (melanoma B 16; 1.25 mg/kg IP): 29.75 days | Variation by weight (g) (melanoma B 16; 1.25 mg/kg IP): +1.0 g | Number of survivors (melanoma B 16; 1.25 mg/kg IP): 0/10 | T/C % (melanoma B 16; 1.25 mg/kg IP): 123% | Median day of survival (melanoma B 16; 2.5 mg/kg IP): 32.6 days | Variation by weight (g) (melanoma B 16; 2.5 mg/kg IP): +0.1 g | Number of survivors (melanoma B 16; 2.5 mg/kg IP): 0/10 | T/C % (melanoma B 16; 2.5 mg/kg IP): 134% | Median day of survival (melanoma B 16; 5 mg/kg IP): 50.0 days | Variation by weight (melanoma B 16; 5 mg/kg IP): -0.2 g | Number of survivors (melanoma B 16; 5 mg/kg IP): 1/10 | T/C % (melanoma B 16; 5 mg/kg IP): 206% | Median day of survival (melanoma B 16; 10 mg/kg IP): 11.75 days | Variation by weight (melanoma B 16; 10 mg/kg IP): -1.9 g | Number of survivors (melanoma B 16; 10 mg/kg IP): 0/10 | T/C % (melanoma B 16; 10 mg/kg IP): 48% | Median day of survival (leukemia P 388; 2.5 mg/kg IP): 19.25 days | Variation by weight (g) (leukemia P 388; 2.5 mg/kg IP): +0.9 g | Number of survivors (leukemia P 388; 2.5 mg/kg IP): 1/10 | T/C % (leukemia P 388; 2.5 mg/kg IP): 166% | Median day of survival (leukemia P 388; 5 mg/kg IP): 22 days | Variation by weight (leukemia P 388; 5 mg/kg IP): -1.0 g | Number of survivors (leukemia P 388; 5 mg/kg IP): 3/10 | T/C % (leukemia P 388; 5 mg/kg IP): 190% | Median day of survival (leukemia P 388; 10 mg/kg IP): 11.75 days | Variation by weight (leukemia P 388; 10 mg/kg IP): -1.7 g | Number of survivors (leukemia P 388; 10 mg/kg IP): 0/10 | T/C % (leukemia P 388; 10 mg/kg IP): 102% | Median day of survival (leukemia P 388; 20 mg/kg IP): 7.4 days | Variation by weight (leukemia P 388; 20 mg/kg IP): -4.4 g | Number of survivors (leukemia P 388; 20 mg/kg IP): 0/10 | T/C % (leukemia P 388; 20 mg/kg IP): 64%
